Data on four compounds can be found in patent US4005132A, “Process for reacting trialkyl boranes with compounds containing protons” (Studiengesellschaft Kohle m.b.H., priority 1971, dated 1977).

A short description of data set [1]: Solubility of diethylborylated sugars and polysaccharides. The format is physicochemical.
Data set [2] is described as follows: Thermal stability (vacuum distillation / decomposition on heating). The format is physicochemical.

Take `CCB(CC)OC[C@H]1OC(OB(CC)CC)[C@H](OB(CC)CC)[C@@H](OB(CC)CC)[C@@H]1OB(CC)CC` (single isomer, unassigned) [1,2,3,4,5-Pentakis-diethyl-boryl-D(+)-glucose]: the solubility in hydrocarbons entry in data set [1] was “very readily soluble”. The “stability on distillation under high vacuum” value in data set [2] (high vacuum, 136° C.) was “without decomposition”. Further, the “stability on vacuum distillation” value in data set [2] is “without decomposition”.

As to `CCB(CC)OC[C@H]1O[C@H](OC)[C@H](OB(CC)CC)[C@@H](OB(CC)CC)[C@@H]1OB(CC)CC` [2,3,4,6-tetrakis(diethylboryl)-α-methyl-D-(+)-glucoside], the solubility in hydrocarbons entry in data set [1] is “very readily soluble”. Also, in data set [2], the “stability on vacuum distillation” value was “without decomposition”.

For `CCB(CC)OC[C@H](OB(CC)CC)[C@H]1OC(=O)C(OB(CC)CC)=C1OB(CC)CC` [2.3.5.6-Tetrakis-diethylboryl-L(+)-ascorbic acid], the solubility in hydrocarbons result in data set [1] is “very readily soluble”. The “stability on vacuum distillation” value in data set [2] was “without decomposition”.

As to `CCB(CC)OC[C@H]1O[C@@H]2O[C@H]3[C@H](OB(CC)CC)[C@@H](OB(CC)CC)[C@@H](O[C@H]4[C@H](OB(CC)CC)[C@@H](OB(CC)CC)[C@@H](O[C@H]5[C@H](OB(CC)CC)[C@@H](OB(CC)CC)[C@@H](O[C@H]6[C@H](OB(CC)CC)[C@@H](OB(CC)CC)[C@@H](O[C@H]7[C@H](OB(CC)CC)[C@@H](OB(CC)CC)[C@@H](O[C@H]8[C@H](OB(CC)CC)[C@@H](OB(CC)CC)[C@@H](O[C@H]1[C@H](OB(CC)CC)[C@H]2OB(CC)CC)O[C@@H]8COB(CC)CC)O[C@@H]7COB(CC)CC)O[C@@H]6COB(CC)CC)O[C@@H]5COB(CC)CC)O[C@@H]4COB(CC)CC)O[C@@H]3COB(CC)CC` [(I), Per-O-diethylboryl-cyclohepta-amylose], in data set [1] (aliphatic and aromatic hydrocarbons and carbon tetrachloride), the “solubility in aliphatic and aromatic hydrocarbons and in carbon tetrachloride” value was “soluble”. In addition, in data set [2] (with evolution of triethyl borane), the “Decomposition of the compound begins at” value came out at 141 °C.
